Earlier results as cited in article PMC7395068, “The evolution of strategies to minimise the risk of human drug-induced liver injury (DILI) in drug discovery and development” (Archives of Toxicology, 2020).
Read-outs that look alike come from different tables or passages of the source.

What was measured:
[1] = cited from earlier work
[2] = system: isolated mouse liver mitochondria; settings: cited from earlier work
[3] = system: THLE or HepG2 cells, isolated mitochondria, BSEP; settings: cited from earlier work
[4] = cited from earlier work; remark: listed apart in the source
[5] = system: HepG2 cells; settings: cited from earlier work
[6] = system: human hepatocytes; settings: cited from earlier work
[7] = system: primary human hepatocytes, NIH3T3 fibroblasts, BSEP, CYP3A4; settings: In vitro Assay; ref Schadt 2015; cited from earlier work
[8] = In vitro Assay, ref Porceddu 2012
[9] = In vitro Assay, ref Persson 2013

SMILES | In vivo DILI ([1]; ref Porceddu 2012) | in vitro data EC2<=1x Cmax [2, 8] | in vitro data EC20<=2uM [2, 8] | DILI +VE (5-8), DILI -VE (-4) ([4]; ref Chen 2016) | DILI severity category ([4]; ref Chen 2016) | other results
C[C@@H]1O[C@@H](OC[C@H]2O[C@@H](Oc3c(-c4ccc(OCCO)c(OCCO)c4)oc4cc(OCCO)cc(O)c4c3=O)[C@H](O)[C@@H](O)[C@@H]2O)[C@H](O)[C@H](O)[C@H]1O [Troxerutin] | -VE | -VE | +VE | – | – | –
O=C(O)CCCCCCNC1c2ccccc2CCc2ccccc21 [amineptine] | – | – | – | – | – | In vivo DILI ([1]; in vivo): +VE; Partition Hybrid HRM Score [3]: +VE; Ro2 Hybrid HRM Score [3]: -VE; DILI +VE (5-8), DILI -VE (-4) ([4]; in vivo): +VE; DILI severity category ([4]; in vivo): vMost-DILI-Concern; Cluser analysis [5]: -VE; Structural based (HCI) [5]: -VE
Nc1ccc(C(=O)O)c(O)c1 [aminosalicylic acid] | – | – | – | – | – | In vivo DILI ([1]; in vivo): +VE; Cluser analysis [5, 9]: -VE; Structural based (HCI) [5, 9]: -VE; Structural based (HCI) [6]: +VE
CCN1CCCC1CNC(=O)c1cc(S(=O)(=O)CC)c(N)cc1OC (stereo not shown) [amisulpride] | – | – | – | – | – | In vivo DILI ([1]; ref Persson 2013): -VE; Cluser analysis [5, 9]: -VE; Structural based (HCI) [5, 9]: -VE
O=[As]O[As]=O (stereo not shown) [arsenic trioxide] | +VE | -VE | +VE | -VE | Ambiguous DILI-concern | –
C=CC1=C(C(=O)O)N2C(=O)[C@@H](NC(=O)/C(=N\OCC(=O)O)c3csc(N)n3)[C@H]2SC1 [cefixime] | +VE | +VE | -VE | -VE | Ambiguous DILI-concern | –
O=C(O)CCCc1ccc(N(CCCl)CCCl)cc1 [chlorambucil] | +VE | +VE | +VE | +VE | vLess-DILI-Concern | –
Clc1ccccc1C(c1ccccc1)(c1ccccc1)n1ccnc1 [clotrimazole] | +VE | +VE | +VE | +VE | vLess-DILI-Concern | In vivo DILI ([1]; […]): -VE; In vivo DILI ([1]; ref Aleo 2019): +VE; In vivo DILI ([1]; ref Xu 2008): -VE; Partition Hybrid HRM Score ([3]; In vitro Assay, ref Aleo 2019): +VE; Ro2 Hybrid HRM Score ([3]; In vitro Assay, ref Aleo 2019): +VE; Structural based (HCI) ([6]; In vitro Assay, ref Xu 2008): -VE
COc1cccc2c1C(=O)c1c(O)c3c(c(O)c1C2=O)C[C@@](O)(C(C)=O)C[C@@H]3O[C@H]1C[C@H](N)[C@H](O)[C@H](C)O1 [daunorubicin] | +VE | +VE | +VE | -VE | vNo-DILI-Concern | –
CC1=NS(=O)(=O)c2cc(Cl)ccc2N1 [diazoxide] | -VE | +VE | -VE | -VE | Ambiguous DILI-concern | –
O=C(O)c1cc(-c2ccc(F)cc2F)ccc1O [diflunisal] | +VE | +VE | +VE | +VE | vMost-DILI-Concern | In vivo DILI ([1]; ref Xu 2008): +VE; Structural based (HCI) ([6]; In vitro Assay, ref Xu 2008): +VE
C#Cc1cccc(Nc2ncnc3cc(OCCOC)c(OCCOC)cc23)c1 [erlotinib] | +VE | +VE | +VE | +VE | vMost-DILI-Concern | –
CC(C)(C(=O)O)c1ccc(C(O)CCCN2CCC(C(O)(c3ccccc3)c3ccccc3)CC2)cc1 (stereo not shown) [fexofenadine] | – | – | – | – | – | Cluser analysis [5]: -VE
Nc1nc2ncc(CNc3ccc(C(=O)N[C@@H](CCC(=O)O)C(=O)O)cc3)nc2c(=O)[nH]1 [folic acid] | – | +VE | – | – | – | Partition Hybrid HRM Score ([3]; In vitro Assay, ref Aleo 2019): -VE; Ro2 Hybrid HRM Score ([3]; In vitro Assay, ref Aleo 2019): -VE
Nc1nc(=O)c2c([nH]1)NC[C@@H](CNc1ccc(C(=O)N[C@@H](CCC(=O)O)C(=O)O)cc1)N2C=O [folinic acid] | – | – | – | – | – | In vivo DILI ([1]; ref Persson 2013): -VE; Cluser analysis [5, 9]: -VE; Structural based (HCI) [5, 9]: -VE
COc1cc2ncnc(Nc3ccc(F)c(Cl)c3)c2cc1OCCCN1CCOCC1 [gefitinib] | – | +VE | – | – | – | Partition Hybrid HRM Score ([3]; In vitro Assay, ref Aleo 2019): +VE; Ro2 Hybrid HRM Score ([3]; In vitro Assay, ref Aleo 2019): +VE

SMILES | In vivo DILI ([1]; ref Porceddu 2012) | in vitro data EC2<=1x Cmax [2, 8] | in vitro data EC20<=2uM [2, 8] | DILI +VE (5-8), DILI -VE (-4) ([4]; ref Chen 2016) | DILI severity category ([4]; ref Chen 2016) | other results
O=c1c(-c2ccc(O)cc2)coc2cc(O)cc(O)c12 [genistein] | – | – | – | – | – | In vivo DILI ([1]; in vivo): -VE; in vitro data EC20<=2uM [2]: +VE
Cc1ccc(NC(=O)c2ccc(CN3CCN(C)CC3)cc2)cc1Nc1nccc(-c2cccnc2)n1 [imatinib] | – | +VE | – | – | – | In vivo DILI ([1]; in vivo): +VE; DILI +VE (5-8), DILI -VE (-4) ([4]; in vivo): +VE; DILI severity category ([4]; in vivo): vMost-DILI-Concern
Nc1ccn([C@@H]2CS[C@H](CO)O2)c(=O)n1 [lamivudine] | – | +VE | – | – | – | Partition Hybrid HRM Score [3]: -VE; DILI +VE (5-8), DILI -VE (-4) ([4]; in vivo): +VE; DILI severity category ([4]; in vivo): vLess-DILI-Concern
[Cl][Mn][Cl] [manganese chloride] | -VE | -VE | -VE | – | – | –
Cc1c(O)cccc1C(=O)N[C@@H](CSc1ccccc1)[C@H](O)CN1C[C@H]2CCCC[C@H]2C[C@H]1C(=O)NC(C)(C)C [nelfinavir] | +VE | +VE | +VE | +VE | vLess-DILI-Concern | –
CN1CCC[C@H]1c1cccnc1 [nicotine] | – | – | – | – | – | In vivo DILI ([1]; in vivo): -VE; Cluser analysis [5]: -VE; in vitro data EC20<=2uM [2]: -VE
CCCN1C[C@H](CSC)C[C@@H]2c3cccc4[nH]cc(c34)C[C@H]21 [pergolide] | – | – | – | -VE | Ambiguous DILI-concern | In vivo DILI ([1]; ref Persson 2013): -VE; Cluser analysis [5, 9]: -VE; Structural based (HCI) [5, 9]: -VE
CCCc1cc(=O)[nH]c(=S)[nH]1 [propylthiouracil] | – | +VE | – | – | – | DILI +VE (5-8), DILI -VE (-4) ([4]; in vivo): +VE; DILI severity category ([4]; in vivo): vMost-DILI-Concern; Cluser analysis [5]: -VE; Structural based (HCI) [5]: -VE
CC(C)c1nc(CN(C)C(=O)N[C@H](C(=O)N[C@@H](Cc2ccccc2)C[C@H](O)[C@H](Cc2ccccc2)NC(=O)OCc2cncs2)C(C)C)cs1 [ritonavir] | +VE | +VE | +VE | +VE | vMost-DILI-Concern | In vivo DILI ([1]; ref Aleo 2019): +VE; In vivo DILI ([1]; ref Schadt 2015): +VE; Partition Hybrid HRM Score ([3]; In vitro Assay, ref Aleo 2019): +VE; Ro2 Hybrid HRM Score ([3]; In vitro Assay, ref Aleo 2019): +VE
CC[C@H]1OC(=O)[C@H](C)[C@@H](O[C@H]2C[C@@](C)(OC)[C@@H](O)[C@H](C)O2)[C@H](C)[C@@H](O[C@@H]2O[C@H](C)C[C@H](N(C)C)[C@H]2O)[C@](C)(O)C[C@@H](C)/C(=N\OCOCCOC)[C@H](C)[C@@H](O)[C@]1(C)O [roxithromycin] | +VE | +VE | -VE | – | – | –
CC(C)(C)NC(=O)[C@@H]1C[C@@H]2CCCC[C@@H]2CN1C[C@@H](O)[C@H](Cc1ccccc1)NC(=O)[C@H](CC(N)=O)NC(=O)c1ccc2ccccc2n1 [saquinavir] | +VE | +VE | +VE | +VE | vLess-DILI-Concern | In vivo DILI ([1]; ref Schadt 2015): -VE
CNC(=O)c1cc(Oc2ccc(NC(=O)Nc3ccc(Cl)c(C(F)(F)F)c3)cc2)ccn1 [sorafenib] | +VE | +VE | -VE | +VE | vMost-DILI-Concern | In vivo DILI ([1]; ref Aleo 2019): +VE; Partition Hybrid HRM Score ([3]; In vitro Assay, ref Aleo 2019): +VE; Ro2 Hybrid HRM Score ([3]; In vitro Assay, ref Aleo 2019): +VE
CNS(=O)(=O)Cc1ccc2[nH]cc(CCN(C)C)c2c1 [sumatriptan] | -VE | -VE | -VE | -VE | Ambiguous DILI-concern | In vivo DILI ([1]; ref Xu 2008): -VE; Structural based (HCI) ([6]; In vitro Assay, ref Xu 2008): -VE
COc1cccc(C2(O)CCCCC2CN(C)C)c1 (stereo not shown) [tramadol] | +VE | -VE | -VE | -VE | Ambiguous DILI-concern | –
CN[C@H](CC(C)C)C(=O)N[C@H]1C(=O)N[C@@H](CC(N)=O)C(=O)N[C@H]2C(=O)N[C@H]3C(=O)N[C@H](C(=O)N[C@H](C(=O)O)c4cc(O)cc(O)c4-c4cc3ccc4O)[C@H](O)c3ccc(c(Cl)c3)Oc3cc2cc(c3O[C@@H]2O[C@H](CO)[C@@H](O)[C@H](O)[C@H]2O[C@H]2C[C@](C)(N)[C@H](O)[C@H](C)O2)Oc2ccc(cc2Cl)[C@H]1O [vancomycin] | – | – | – | – | – | Partition Hybrid HRM Score [3]: +VE; Ro2 Hybrid HRM Score [3]: -VE; DILI +VE (5-8), DILI -VE (-4) ([4]; in vivo): +VE; DILI severity category ([4]; in vivo): vLess-DILI-Concern; Cluser analysis [5]: -VE; Structural based (HCI) [6]: +VE
CC[C@]1(O)C[C@@H]2CN(CCc3c([nH]c4ccccc34)[C@@](C(=O)OC)(c3cc4c(cc3OC)N(C)[C@H]3[C@@](O)(C(=O)OC)[C@H](OC(C)=O)[C@]5(CC)C=CCN6CC[C@]43[C@@H]65)C2)C1 [vinblastine] | – | -VE | – | – | – | Cellular toxicity (3T3 cells) [7]: -VE; GSH adduct HML [7]: -VE; Hepatocyte cellular toxicity [7]: +VE; MitoTox 3T3 [7]: +VE; TDI CYP3A4 [7]: +VE; hBSEP inhibition [7]: +VE
